For 31 compounds, IC50 results are on record in patent publication US9586956B2, “Isoquinoline and naphthyridine derivatives” (Genentech, Inc., priority 2012, dated 2017).

The target of the first assay is T1, purified human MAP4K4 kinase domain (Homo sapiens, UniProt O95819).
T1 construct: purified human MAP4K4 kinase domain
T1 sequence (O95819 25-289 limits assumed): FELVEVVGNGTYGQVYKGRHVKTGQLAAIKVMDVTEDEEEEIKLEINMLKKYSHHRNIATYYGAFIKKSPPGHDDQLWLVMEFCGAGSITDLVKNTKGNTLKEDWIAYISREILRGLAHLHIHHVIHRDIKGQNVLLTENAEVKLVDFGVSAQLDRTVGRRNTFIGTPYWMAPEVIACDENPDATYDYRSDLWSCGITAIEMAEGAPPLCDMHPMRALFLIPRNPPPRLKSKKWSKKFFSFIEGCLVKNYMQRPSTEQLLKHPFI
Put plainly: MAP4K4 Inhibition Assay Protocol No. 1 (Caliper LabChip, moesin-derived peptide phosphorylation). Format: biochemical. The following applies: Assay 1; 1 nM enzyme, 10 uM ATP, 45 min. How it is done: The kinase activity of purified human MAP4K4 kinase domain was measured by monitoring the phosphorylation of a peptide substrate derived from moesin protein (Leu-Gly-Arg-Asp-Lys-Tyr-Lys-Thr-Leu-Arg-Gln-Ile-Arg-Gln) fluorescently labeled on the N-terminus with 5-carboxyfluorescein using the Caliper LabChip technology (Caliper Life Sciences, Hopkinton, Mass.). To determine inhibition constants (IC50), compounds were serially diluted in DMSO and added to 10 uL kinase reactions containing 1 nM purified MAP4K4 enzyme, 1 uM peptide substrate, 10 uM ATP, 10 mM MgCl2, 1 mM EGTA, 50 mM Hepes pH 7.2, 1 mM DTT, 0.01% Triton X-100, and 2% DMSO. Reactions were incubated at room temperature in Perkin Elmer Proxiplates for 45 minutes and stopped by the addition of 10 uL of an EDTA-containing solution (50 mM Hepes pH 7.2, 40 mM EDTA, 0.02% Triton X-100). The fraction of phosphorylated peptide was determined as a fraction of total peptide substrate using the Caliper Lab Chip 3000 according to the manufacturer's instructions. IC50 values were determined using the four-parameter non-linear fit model.
In general, IC50 refers to the concentration at which inhibition is half-maximal. `COc1cccc(CNC(=O)c2cnc(N)c3cc(-c4cccc(F)c4)ccc23)c1` [Example 91, 1-amino-7-(3-fluorophenyl)-N-[(3-methoxyphenyl)methyl]isoquinoline-4-carboxamide]: the IC50 is 0.0511 µM. `Nc1ncc(C(=O)NC(CO)CO)c2ccc(-c3cccc(F)c3)cc12` [Example 114, 1-amino-7-(3-fluorophenyl)-N-[2-hydroxy-1-(hydroxy-methyl)ethyl]isoquinoline-4-carboxamide] came in with an IC50 of 0.0386 µM. On to `C[C@H](NC(=O)c1cnc(N)c2cc(-c3cccc(F)c3)ccc12)C(N)=O` [Example 85, 1-amino-N-[(1S)-2-amino-1-methyl-2-oxo-ethyl]-7-(3-fluorophenyl) isoquinoline-4-carboxamide], for which the IC50 is 0.363 µM. This IC50 lies about 9.4-fold higher than the previous one. `Nc1ncc(C(=O)NC2CN(C(=O)C3CC3)C2)c2ccc(-c3cccc(F)c3)cc12` [Example 126, 1-amino-N-[1-(cyclo-propanecarbonyl)azetidin-3-yl]-7-(3-fluorophenyl)isoquinoline-4-carboxamide] came in with an IC50 of 0.0357 µM. `NC(=O)c1cnc(N)c2cc(-c3cccc(F)c3)ccc12` [Example 66, 1-amino-7-(3-fluorophenyl) isoquinoline-4-carboxamide] had an IC50 of 0.0327 µM. As for `CNC(=O)c1nc(CNC(=O)c2cnc(N)c3cc(-c4cccc(F)c4)ccc23)no1` [Example 87, 3-[[[1-amino-7-(3-fluorophenyl)isoquinoline-4-carbonyl]amino]methyl]-N-methyl-1,2,4-oxadiazole-5-carboxamide], it took 0.0452 µM to reach half-maximal inhibition (IC50).

In the next assay the target is T1, purified human MAP4K4 kinase domain. In words: MAP4K4 Inhibition Assay Protocol No. 2 (Z'-LYTE FRET). Format: biochemical. The following applies: Assay 2; 1 nM enzyme, 10 uM ATP, 60 min. The source says: The kinase activity of purified human MAP4K4 kinase domain was monitored using Z'-LYTE™ technology from Invitrogen to determine inhibition constants (IC50) of small molecule inhibitors. The Z'-LYTE™ biochemical assay employs a fluorescence-based, coupled-enzyme format and is based on the differential sensitivity of phosphorylated and non-phosphorylated peptides to proteolytic cleavage. In the primary reaction, the kinase transfers the gamma-phosphate of ATP to a single tyrosine, serine or threonine residue in a synthetic FRET-peptide. In the secondary reaction, a site-specific protease recognizes and cleaves non-phosphorylated FRET-peptides. Phosphorylation of FRET-peptides suppresses cleavage by the Development Reagent. Cleavage disrupts FRET between the donor (i.e., coumarin) and acceptor (i.e., fluorescein) fluorophores on the FRET-peptide, whereas uncleaved, phosphorylated FRET-peptides maintain FRET. To determine inhibition constants (IC50), compounds were serially diluted in DMSO and added to 10 uL kinase reactions containing 1 nM purified MAP4K4 enzyme, 2 uM ser/thr7 Z'-LYTE™ substrate, 10 uMATP, 50 mM Hepes (pH 7.5), 10 mM MgCl2, 1 mM EGTA, 0.01% Brij-35, and 2% DMSO. Reactions were incubated at room temperature in Corning Black 384 well plates (Corning#3573) for 60 minutes and stopped by the addition of 5 uL of Z'-LYTE™ development reagent A and incubated at room temp for 60 minutes. The plate is then analyzed on Perkin Elmer Envision by FRET mode. The high ratio of coumarin/fluorescein represents 0% phosphorylation rate while low ratio of coumarin/fluorescein represents 100% phosphorylation rate. The following equations are used to determine extent of peptide phosphorylation or inhibition: […]
Compound `Nc1ncc(C(=O)NC2CN(S(N)(=O)=O)C2)c2ccc(-c3cccc(F)c3)nc12` [Example 21, 8-amino-2-(3-fluorophenyl)-N-(1-sulfamoylazetidin-3-yl)-1,7-naphthyridine-5-carboxamide] displayed an IC50 of 0.0018 µM. Same read-out and setting: to `CN(C(=O)c1cnc(N)c2nc(-c3cccc(F)c3)ccc12)C1CN(C(=O)C2CC2)C1` [Example 41, 8-amino-N-(1-(cyclopropanecarbonyl)azetidin-3-yl)-2-(3-fluorophenyl)-N-methyl-1,7-naphthyridine-5-carboxamide] belongs 1.2 µM.

In turn, `Nc1ncc(-c2ncn[nH]2)c2ccc(-c3cccc(F)c3)nc12` [Example 42, 2-(3-fluorophenyl)-5-(1H-1,2,4-triazol-5-yl)-1,7-naphthyridin-8-amine] came in with an IC50 of 0.00832 µM. `CCOC(=O)c1cnc(N)c2nc(-c3ccc(Cl)cc3)ccc12` [Example 149, ethyl 8-amino-2-(4-chlorophenyl)-1,7-naphthyridine-5-carboxylate] came in with an IC50 of 0.0278 µM. Compared with the last compound, the IC50 is about 3.3-fold higher. Consider `Nc1ncc(C(=O)NC2CN(C(=O)CN3CCOCC3)C2)c2ccc(-c3cccc(F)c3)nc12` [Example 20, 8-amino-2-(3-fluorophenyl)-N-(1-(2-morpholinoacetyl)azetidin-3-yl)-1,7-naphthyridine-5-carboxamide], for which the IC50 was 0.0068 µM. `Cn1ncnc1-c1cnc(N)c2cc(-c3cccc(F)c3)ccc12` [Example 12, 7-(3-fluorophenyl)-4-(2-methyl-1,2,4-triazol-3-yl)isoquinolin-1-amine]: the IC50 worked out at 0.218 µM. Compound `CCOC(=O)c1cnc(N)c2nc(-c3ccc(F)cc3C)ccc12` [Example 153, ethyl 8-amino-2-(4-fluoro-2-methyl-phenyl)-1,7-naphthyridine-5-carboxylate] registered an IC50 of 0.00652 µM. This IC50 is about 33-fold lower than that of the compound before. Still for that read-out and setting: for `CC(=O)NC1CN(C(=O)c2cnc(N)c3nc(-c4cccc(F)c4)ccc23)C1` [Example 32, N-(1-(8-amino-2-(3-fluorophenyl)-1,7-naphthyridine-5-carbonyl)azetidin-3-yl)acetamide] the value was 0.0198 µM; for `C[C@@H](O)C(=O)N1CC(NC(=O)c2cnc(N)c3nc(-c4cccc(F)c4)ccc23)C1` [Example 24, (R)-8-amino-2-(3-fluorophenyl)-N-(1-(2-hydroxypropanoyl)azetidin-3-yl)-1,7-naphthyridine-5-carboxamide], 0.004 µM; for `Nc1ncc(-c2ncco2)c2ccc(-c3cccc(F)c3)cc12` [Example 11, 7-(3-fluorophenyl)-4-oxazol-2-yl-isoquinolin-1-amine], 0.00873 µM.

Regarding `Nc1ncc(CNC(=O)c2ccccc2)c2ccc(-c3cccc(F)c3)cc12` [Example 136, N-[[1-amino-7-(3-fluoro-phenyl)-4-isoquinolyl]methyl]benzamide], half-maximal inhibition (IC50) required 0.919 µM. Compared with the last compound, the IC50 is about 110-fold higher.

The compound `CC(O)C(=O)N1CC(NC(=O)c2cnc(N)c3nc(-c4cccc(F)c4)ccc23)C1` (stereo not shown) [Example 16, 8-amino-2-(3-fluorophenyl)-N-(1-(2-hydroxypropanoyl)azetidin-3-yl)-1,7-naphthyridine-5-carboxamide] gave an IC50 of 0.0045 µM. This IC50 is about 200-fold lower than that of the compound before.

In the case of `CCOC(=O)c1cnc(N)c2nc(-c3ccc(OC)cc3Cl)ccc12` [Example 155, ethyl 8-amino-2-(2-chloro-4-methoxy-phenyl)-1,7-naphthyridine-5-carboxylate], the IC50 is 0.134 µM. The same measure, in the same setting: for `COCC(=O)N1CC(NC(=O)c2cnc(N)c3nc(-c4cccc(F)c4)ccc23)C1` [Example 39, 8-amino-2-(3-fluorophenyl)-N-(1-(2-methoxyacetyl)azetidin-3-yl)-1,7-naphthyridine-5-carboxamide] the value was 0.0044 µM.

`Nc1ncc(C(=O)NC2CN(C(=O)N3CCOCC3)C2)c2ccc(-c3cccc(F)c3)nc12` [Example 27, 8-amino-2-(3-fluorophenyl)-N-(1-(morpholine-4-carbonyl)azetidin-3-yl)-1,7-naphthyridine-5-carboxamide] returned an IC50 of 0.0147 µM.

`CCC(=O)N1CC(NC(=O)c2cnc(N)c3nc(-c4cccc(F)c4)ccc23)C1` [Example 35, 8-amino-2-(3-fluorophenyl)-N-(1-propionylazetidin-3-yl)-1,7-naphthyridine-5-carboxamide] displayed an IC50 of 0.00378 µM. Regarding `C[C@H](O)C(=O)N1CC(NC(=O)c2cnc(N)c3nc(-c4cccc(F)c4)ccc23)C1` [Example 25, (S)-8-amino-2-(3-fluorophenyl)-N-(1-(2-hydroxypropanoyl)azetidin-3-yl)-1,7-naphthyridine-5-carboxamide], the IC50 came out at 0.00918 µM. This IC50 lies about 2.4-fold higher than the previous one. Take `CCOC(=O)c1cnc(N)c2nc(-c3cccc(S(C)(=O)=O)c3)ccc12` [Example 143, ethyl 8-amino-2-(3-methyl-sulfonylphenyl)-1,7-naphthyridine-5-carboxylate]: the half-maximal inhibitory concentration (IC50) is 0.0636 µM. `CCOC(=O)c1cnc(N)c2nc(-c3cccc(OC(F)F)c3)ccc12` [Example 140, ethyl 8-amino-2-[3-(difluoro-methoxy)phenyl]-1,7-naphthyridine-5-carboxylate] displayed an IC50 of 0.00769 µM. Consider `Nc1ncc(C(=O)N2CC(N(C(=O)C3CC3)C(=O)C3CC3)C2)c2ccc(-c3cccc(F)c3)nc12` [Example 31, N-(1-(8-amino-2-(3-fluorophenyl)-1,7-naphthyridine-5-carbonyl)azetidin-3-yl)-N-(cyclopropanecarbonyl)cyclopropanecarboxamide], for which inhibition was half-maximal at 0.284 µM (IC50). `Nc1ncc(C(=O)NC2CCC2)c2ccc(-c3cccc(F)c3)nc12` [Example 33, 8-amino-N-cyclobutyl-2-(3-fluorophenyl)-1,7-naphthyridine-5-carboxamide] displayed an IC50 of 0.00165 µM. Compared with the last compound, the IC50 is about 170-fold lower. `CC(=O)N1CC(NC(=O)c2cnc(N)c3nc(-c4cccc(F)c4)ccc23)C1` [Example 26, N-(1-acetylazetidin-3-yl)-8-amino-2-(3-fluorophenyl)-1,7-naphthyridine-5-carboxamide] came in with an IC50 of 0.00411 µM.

`Nc1ncc(-c2cc(CO)ccn2)c2ccc(-c3cccc(F)c3)cc12` [Example 137, [2-[1-amino-7-(3-fluoro-phenyl)-4-isoquinolyl]-4-pyridyl]methanol] displayed an IC50 of 0.0106 µM. The compound `Cn1ccc(-c2cnc(N)c3cc(-c4cccc(F)c4)ccc23)n1` [Example 138, 7-(3-fluorophenyl)-4-(1-methylpyrazol-3-yl) isoquinolin-1-amine] returned a 50% inhibitory concentration (IC50) of 0.0145 µM. In turn, `Nc1ncc(C(=O)NC2COC2)c2ccc(-c3cccc(F)c3)nc12` [Example 38, 8-amino-2-(3-fluorophenyl)-N-(oxetan-3-yl)-1,7-naphthyridine-5-carboxamide] yielded an IC50 of 0.00569 µM.
